The text below walks through data of patent publication US20200010903A1, “AAV-Mediated Direct In vivo CRISPR Screen in Glioblastoma” (YALE UNIVERSITY, priority 2017, published 2020).

Holding throughout (assay type): cell-based, mouse
Experiment [1] deals with Rb1 GBM cells. In words: RNA-seq differential expression, TMZ vs DMSO. The note with it: 1 mM TMZ vs DMSO, 48 h. As for the experimental part: (§1) Temozolomide (TMZ) treatment, Cell viability assay, and RNAseq: After 7-9 days' culture under puromycin selection, lentiviruses-infected Nf1 and Rb1 knockout tumor cells were plated in triplicates into 96-well plate at a density of 2.5×10^3 cells per well, and ˜5×10^6 cells were collected at the same time and used for cutting efficiency analysis. One day after plating, either TMZ or DMSO was added at a concentration of 10 μM, 100 μM, 500 μM, 1 mM, and 2 mM. After 3 days of drug/vehicle treatment, cell viability was measured using CellTiter Glo (Promega) according to the manufactures' protocol. Briefly, the CellTiter Glo was equilibrated at room temperature for 1 h before use. The media of 96-well plates was aspirated, and then 50 μL fresh DMEM+10% FBS and 50 μL CellTiter Glo was added. The luminescent signals were readout using EnVision plate reader (PerkinElmer). For RNAseq samples preparation, cell lines harboring specific gene knockouts were cultured for 7-9 days under the selection pressure of puromycin, and then plated into 6-well plates at a density of 2×10^5 cells per well in triplicates. 24 h after plating, 1 mM TMZ or DMSO in fresh DEME+10% FBS was added and cultured for another 48 h. Then, cellular RNA of control or treated cells were extracted by adding 350 μL TRIzol Reagent (Invitrogen) directly into 6-well plates to lyse the cells, followed by gently shaking the plates and incubation for 5-10 min to complete and lysis and homogenization. Then, 70 μL chloroform was added, vigorously mixed, and centrifuged at 16,000 g for 15 min. Transfer the RNA containing aqueous phase to a new tube and further purified using RNeasy mini kit (Qiagen). After eluting RNA from column using Nuclease free water, the concentrations of sample RNA were normalized into 150-300 ng/uL for RNAseq.
(§2) Transcriptome profiling of different driver combinations in the presence and absence of chemotherapy: Mixtures of five sgRNAs targeting each gene were cloned as sgRNA minipool into the same astrocyte-specific AAV-CRISPR vector. After packaging, AAV minipools were stereotaxically injected into the lateral ventricle of LSL-Cas9 mice. Cell lines were derived from mouse GBMs by single-cell isolation, plating and culture in DMEM media. Additional driver mutations were introduced by lentiCRISPR where applicable. GBM cells with different drivers were treated with DMSO or TMZ for 48 h, and harvested for mRNA-seq for transcriptome profiling. Briefly, total RNA was extracted from cancer cells derived from AAV-CRISPR minipools induced GBM treated with DMSO or TMZ, using commercially available kits (Qiagen/Thermofisher). PolyA-mRNA library was constructed using Illumina TruSeq mRNA library prep kit, and sequenced on Illumina Hiseq 2500 and/or Hiseq 4000 platform.
(§3) RNA-seq differential expression analysis: Strand-specific single-end RNA-seq read files were analyzed to obtain transcript level counts using Kallisto, with the settings --rf-stranded -b 100. The counts were subsequently passed to the tximport R package to collapse to gene level counts. Pairwise differential expression analysis between groups was then performed using edgeR with default settings.

Experiment [2] has as its system Rb1; Pten GBM cells. In words: RNA-seq differential expression, TMZ vs DMSO. The note with it: 1 mM TMZ vs DMSO, 48 h. As for the experimental part:
as §1, §2, §3

The subject of experiment [3] is Rb1; Zc3h13 GBM cells. In words: RNA-seq differential expression, TMZ vs DMSO. The note with it: 1 mM TMZ vs DMSO, 48 h. As for the experimental part: as §1, §2, §3
Experiment [4] relates to Rb1, Rb1; Pten, and Rb1; Zc3h13 GBM cells. In words: RNA-seq TMZ vs DMSO, overlap of differentially expressed genes between genotypes. As for the experimental part:
as §1
as §2, with “Briefly, total RNA was extracted from cancer cells derived from AAV-CRISPR minipools induced GBM treated with DMSO or TMZ, using commercially available kits (Qiagen/Thermofisher). PolyA-mRNA library was constructed using Illumina TruSeq mRNA library prep kit, and sequenced on Illumina Hiseq 2500 and/or Hiseq 4000 platform.” left out
RNA-seq differential expression analysis: Strand-specific single-end RNA-seq read files were analyzed to obtain transcript level counts using Kallisto, with the settings --rf-stranded -b 100. […]

Where [5] appears, read: shared by Rb1, Rb1, Pten, Rb1, Zc3h13.

Each structure is given as a SMILES string.

With `Cn1nnc2c(C(N)=O)ncn2c1=O` [TMZ, temozolomide], the “genes significantly higher in DMSO-treated cells (TMZ-reduced genes)” value in experiment [1] amounted to 332 genes. In experiment [1] (adjusted p<0.05, log fold change ≥1 or ≤−1), the “genes significantly higher in TMZ-treated cells (TMZ-induced genes)” value came to 352 genes. In addition, in experiment [2], the “genes significantly higher in DMSO-treated cells” value was 313 genes and the “genes significantly higher in TMZ-treated cells” value stood at 345 genes. For the same molecule, in experiment [3], the “genes significantly higher in DMSO-treated cells” value turned out to be 166 genes and the “genes significantly higher in TMZ-treated cells” value is on record as 703 genes. Besides, in experiment [4], the “genes significantly reduced upon TMZ treatment in Rb1; Zc3h13 and Rb1; Pten cells, but not in Rb1 cells” value is reported as 37 genes; the “genes upregulated upon TMZ treatment in Rb1; Zc3h13 and Rb1; Pten cells, but not in Rb1 cells” value came out at 60 genes. Also, in experiment [4] (setting [5]), the “genes downregulated among all 3 genotypes upon TMZ treatment” value is listed as 69 genes and the “genes upregulated in all 3 groups upon TMZ treatment” value came out at 42 genes.
